# Assay results reported in patent US20260125366A1, “METHODS FOR TREATING CANCER” (SCORPION THERAPEUTICS, INC., priority 2022, published 2026).
# Molecular target: PI3Kα H1047R (Homo sapiens, UniProt P42336, H1047R)
# Experiment: ADP-Glo assay
# Assay type: biochemical
# Settings: 2 nM H1047R enzyme; 1 hour incubation with compound at room temperature; ATPase reaction 100 min
# Experimental: Compounds were plated using acoustic liquid dispensing on the Echo 655T by transferring 50 nL/well compound DMSO solution from an Echo source plate to a 384-well assay plate to generate a 10-point dose response curve with a top final concentration of […], 1:3 serial dilution down; the same volume of DMSO was dispensed to wells designated as positive and negative controls. On the day of the assay, a 2X enzyme solution in the assay buffer (50 mM Tris, 150 mM NaCl, 0.01% Brij35, 15 mM MgCl2, 0.05% Tween-20, and 1 mM DTT) was prepared. The enzyme concentrations used were: 20 nM for wild-type, 2 nM for H1047R and H1047L, and 10 nM for H1047Y proteins. 2.5 µL/well of 2X enzyme solution was dispensed into the assay plates and the enzyme was incubated with the test compound at room temperature for 1 hour; the same volume of assay buffer without enzyme was dispensed to wells designated as positive controls. At the end of the incubation, 2.5 µL/well of 2X ATP solution in assay buffer was dispensed to initiate the ATPase reaction and incubated at room temperature for 100 min. Reactions were terminated and ADP production measured using the ADP-Glo kit following instructions from the manufacturer.
# The IC50(nM) ranges are as follows: A denotes <200 nM; B denotes 200 nM≤IC50<500 nM; C denotes ≥500 nM. ND denotes value not determined with that assay for the specified compound.
# PI3Kα H1047R, sequence (P42336 whole entry H1047R): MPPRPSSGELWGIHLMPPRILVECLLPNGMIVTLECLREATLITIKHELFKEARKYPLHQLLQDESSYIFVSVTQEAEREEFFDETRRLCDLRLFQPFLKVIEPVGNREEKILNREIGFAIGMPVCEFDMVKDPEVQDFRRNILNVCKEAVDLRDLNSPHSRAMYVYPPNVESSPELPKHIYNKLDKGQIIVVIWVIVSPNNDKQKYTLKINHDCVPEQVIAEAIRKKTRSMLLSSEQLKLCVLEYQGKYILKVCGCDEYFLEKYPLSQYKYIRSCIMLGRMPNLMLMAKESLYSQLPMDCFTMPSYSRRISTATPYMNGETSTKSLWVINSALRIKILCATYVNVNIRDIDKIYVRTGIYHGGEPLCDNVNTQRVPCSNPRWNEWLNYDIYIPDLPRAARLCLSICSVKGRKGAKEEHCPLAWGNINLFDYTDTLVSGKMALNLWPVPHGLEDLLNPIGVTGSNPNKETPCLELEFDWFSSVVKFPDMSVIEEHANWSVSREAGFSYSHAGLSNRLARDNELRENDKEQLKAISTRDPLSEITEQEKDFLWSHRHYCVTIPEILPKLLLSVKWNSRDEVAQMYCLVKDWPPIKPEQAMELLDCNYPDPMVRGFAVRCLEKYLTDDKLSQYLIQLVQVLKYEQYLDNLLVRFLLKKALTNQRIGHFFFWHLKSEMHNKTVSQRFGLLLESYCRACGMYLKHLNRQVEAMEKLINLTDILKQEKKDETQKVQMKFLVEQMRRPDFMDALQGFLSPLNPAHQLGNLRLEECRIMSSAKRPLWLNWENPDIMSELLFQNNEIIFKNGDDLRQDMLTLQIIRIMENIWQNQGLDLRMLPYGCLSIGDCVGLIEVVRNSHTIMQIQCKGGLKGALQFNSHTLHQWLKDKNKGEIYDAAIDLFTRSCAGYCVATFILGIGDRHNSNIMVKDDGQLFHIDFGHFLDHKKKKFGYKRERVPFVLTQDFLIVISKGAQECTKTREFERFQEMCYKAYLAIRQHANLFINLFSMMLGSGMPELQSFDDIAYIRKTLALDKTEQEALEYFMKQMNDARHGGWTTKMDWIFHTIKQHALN
# PI3Kα H1047R, sequence (P27986 whole entry partner): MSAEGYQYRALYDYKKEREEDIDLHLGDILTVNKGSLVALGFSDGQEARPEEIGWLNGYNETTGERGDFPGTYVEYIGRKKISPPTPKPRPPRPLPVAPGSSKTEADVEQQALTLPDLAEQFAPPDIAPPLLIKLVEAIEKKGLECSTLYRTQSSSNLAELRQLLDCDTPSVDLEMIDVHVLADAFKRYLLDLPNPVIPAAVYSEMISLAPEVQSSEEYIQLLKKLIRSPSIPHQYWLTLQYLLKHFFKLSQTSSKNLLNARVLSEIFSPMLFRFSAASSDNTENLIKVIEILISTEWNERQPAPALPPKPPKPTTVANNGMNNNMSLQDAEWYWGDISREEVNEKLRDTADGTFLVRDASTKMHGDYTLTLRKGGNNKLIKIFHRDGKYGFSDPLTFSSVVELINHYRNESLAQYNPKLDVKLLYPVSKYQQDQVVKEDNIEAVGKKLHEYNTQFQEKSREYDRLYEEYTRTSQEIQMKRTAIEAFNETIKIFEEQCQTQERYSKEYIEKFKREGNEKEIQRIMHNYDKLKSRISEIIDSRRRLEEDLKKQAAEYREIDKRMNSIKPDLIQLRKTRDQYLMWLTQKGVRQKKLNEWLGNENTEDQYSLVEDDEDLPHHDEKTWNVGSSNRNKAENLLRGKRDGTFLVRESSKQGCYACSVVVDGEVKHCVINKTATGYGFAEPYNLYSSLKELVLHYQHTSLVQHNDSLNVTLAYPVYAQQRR
row,IC50 [nM],Structure (SMILES)
1,≥ 500,Cc1c([C@@H](NC(=O)Nc2cnc(N)nc2)C(F)(F)F)nn2ccccc12 (racemic) [Compound 5]
2,≥ 500,Cc1c([C@@H](NC(=O)Nc2cnc(N)nc2)C(F)(F)F)nc2ccc(F)cn12 (racemic) [Compound 11]
3,< 200,Cn1c([C@@H](NC(=O)Nc2cnc(N)nc2)C(F)(F)F)nc2c(F)cc(F)cc21 (racemic) [Compound 7]
4,200 to 500,"Cc1c([C@@H](NC(=O)Nc2cnc(N)nc2)C(F)(F)F)n(C)c2c(F)cc(F)cc12 [Compound 3, 1-(2-aminopyrimidin-5-yl)-3-[(1R)-1-(5,7-difluoro-1,3-dimethylindol-2-yl)-2,2,2-trifluoroethyl]ureas]"
5,< 200,"Cn1c(C(NC(=O)Nc2cnc(N)nc2)C(F)(F)F)cc2ccc(F)cc21 (stereo not shown) [Compound 1, 1-(2-aminopyrimidin-5-yl)-3-[2,2,2-trifluoro-1-(6-fluoro-1-methylindol-2-yl)ethyl]urea]"
6,< 200,Cn1c([C@@H](NC(=O)Nc2cnc(N)nc2)C(F)(F)F)cc2c(F)cc(F)cc21 (racemic) [Compound 9]
7,< 200,"CC(C)C(NC(=O)Nc1cnc(N)nc1)c1cc2ccc(F)cc2n1C (stereo not shown) [Compound 2, 1-(2-aminopyrimidin-5-yl)-3-[1-(6-fluoro-1-methylindol-2-yl)-2-methylpropyl]urea]"
